In one data set the target is human ENPP2 (Homo sapiens (Human), UniProt Q13822). Description: Inhibitory activity on human ENPP2 (FS-3 assay). Format: biochemical. Here is the method:
Two-fold dilution of each test compound solution (10 μM, 100% dimethyl sulfoxide) is carried out on 96-well V bottom plate (Costar 3363). After ten-fold dilution of each the test compound solution (100% dimethyl sulfoxide) with deionized distilled water, 10 μL of the diluted each mpound solution (10% dimethyl sulfoxide) was aliquoted to a black flat bottom 96-well plate (Costar 3915).

A further data set addresses human ATX (Homo sapiens (Human), UniProt Q13822). The data set is described as follows: Bis-pNPP assay. Format: biochemical. The following applies: bis-pNPP substrate, read-out: Enzymatic assay (IC50) bis-pNPP. Here is the method:
Eight-fold dilution of each test compound solution (10 μM, 100% dimethyl sulfoxide) is carried out on 96-well V bottom plate (Costar 3363). After […] of each test compound solution (100% dimethyl sulfoxide) with deionized distilled water, 10 μL of the diluted each test compound solution (10% dimethyl sulfoxide) was aliquoted to a black flat bottom 96-well plate (Costar 3915). 50 μL of 60 mM Tris-HCl (pH9.0) buffer was added thereto, and subsequently 20 μL of 3.75 nM human ATX solution (buffer solution: 50 mM Tris-HCl (pH8.5), 5 mM CaCl2, 2.5 mM MgCl2, 0.01% Brij35) and 20 μL of 25 mM Bis-pNPP (bis(p-Nitrophenyl)-phosphate sodium salt) solution (buffer solution: 50 mM Tris-HCl (pH9.0)) were added thereto, respectively, followed by mixing. […] Furthermore, IC50 values that are shown in Table 3 were calculated using Grafit5 Software based on the inhibitory activity percentage ratio.

A short description of data set [1]: Microsomal stability, human liver microsomes. Format: in vitro ADME. Particulars: both sexes, pH 7.4; human liver microsomes (h), 0.5 mg/mL, NADPH regenerating system; read-out: MS (microsomal stability) t1/2. The protocol:
(§1) A 2.5 mM stock solution of test compound in DMSO is diluted to 25 uM with 100 mM potassium phosphate buffer (pH 7.4) containing 5 mM EDTA. This solution was mixed with reaction mixtures (final concentration 1 μM). The incubation mixtures (final volume 700 μL) of test compound with liver microsomes [Xenotech; rat (male SD), human (mixed gender)] consisted of liver microsomes (0.5 mg/mL), substrate (Compound 4, […]), NADPH regenerating system (1.3 mM NADP+, 3.3 mM Glucose-6-phosphate, 3.3 mM MgCl2, 0.4 U/ml Glucose-6-phosphate dehydrogenase) in 81.3 mM potassium phosphate buffer (pH 7.4) containing 1 mM EDTA in duplicates. The reaction was initiated by addition of the NADPH regenerating system after preincubation at 37° C. for 10 min with test compounds. 100 uL of aliquot of the sample was removed at 0, 5, 10, 20, 30 and 60 min. The reaction was stopped by addition of 200 uL of acetonitrile containing internal standard (0.3 uM of Dextromethorphan). Each sample was mixed and centrifuged at 14000 rpm for 10 min. The resulting supernatant was analyzed by the LC-MS/MS method for determination of loss of parent compound. % parent remaining was calculated at 6 point time testing was done for T½ determination.
A general note: Liver microsomes are vesicles of endoplasmic reticulum, rich in cytochrome P450 enzymes.

A short description of data set [2]: Microsomal stability, rat liver microsomes. Particulars: male, SD, pH 7.4; rat liver microsomes (r), 0.5 mg/mL, NADPH regenerating system; read-out: MS (microsomal stability) t1/2. The format is in vitro ADME. The protocol: as §1
In data set [3] the test system is LPA production in mouse plasma. The data set is described as follows: Ex-vivo assay (LPC assay) in mouse plasma. The following applies: LPA 18:1. The format is biochemical. The protocol: (§2) After 100-fold dilution of each test compound solution (5 μL) (10 mM, 100%, dimethyl sulfoxide) with 495 μL of methanol, 3 μL of the diluted methanol solution (1% dimethyl sulfoxide) was mixed with 57 μL of human or mouse blood serum solution in a 1.5 mL tube. The mixed test compound solution was serially diluted, 12 μL for each, with 48 μL of 100% blood serum to have 5 different concentrations, and each tube was kept for 15 minutes in a water bath with constant temperature of 37° C. Subsequently, a solution prepared by diluting 10 mg/mL 18:1 LPC solution (50% ethanol) with blood serum to have concentration of 375 μg/mL was aliquoted in an amount of 2 μL to each tube so as to have 50 μL. Each tube was kept for 3 hours in a water bath at 37° C. to allow a reaction. To the tube obtained after the reaction, 100 μL of 0.5 μM 17:0 LPA solution (chloroform/methanol/water=65/35/8) was aliquoted and mixed therein. Centrifuge was carried out for 10 minutes using a centrifuge at conditions of 14,000 rpm and 4° C. 100 μL of 50% methanol solution is aliquoted first to a 96-well polypropylene plate (Agilent Technology 5042-1385), and the supernatant (50 μL) in a tube after the centrifuge was carefully transferred to the plate followed by mixing. After covering it with Well cap (Thermo 276011), analysis was carried out by LC-MS/MS (Agilent 1260).
The test was carried out in the same process as Test example 2 to obtain the IC50 values in the following table 4.

The subject of data set [4] is LPA production in blood serum caused by autotoxin. The data set is described as follows: Inhibitory activity on LPA production in mouse blood serum. Particulars: mouse blood serum (m), 18:1 LPC, 3 hours at 37° C. The format is biochemical. Here is the method: as §2, with “The mixed test compound solution was serially diluted, 12 μL for each, with 48 μL of 100% blood serum to have 5 different concentrations, and each tube was kept for 15 minutes in a water bath with constant temperature of 37° C.” left out
In the following Table 3, the mouse blood serum was described as (m) and human blood serum was described as (h).

Setting [5] is: FS-3 assay, same process as Test example 1, read-out: Enzymatic assay (IC50) FS-3.
The mark [6] stands for this setting: human ENPP2, FS-3 substrate, 30 min at 37° C., read-out: IC50.

Counter-ions that a name gives are not always drawn. Like-named read-outs stand apart in the source and are kept apart here.

For orientation: IC50 means the concentration that gives 50% inhibition.

With `CCN(CC)c1nn(CC(=O)N2CCc3[nH]nnc3C2)cc1-c1cnc(NC2Cc3ccccc3C2)nc1` [Compound 106, 2-[3-(diethylamino)-4-{2-[(2,3-dihydro-1H-inden-2-yl)amino]pyrimidin-5-yl}-1H-pyrazol-1-yl]-1-{1H,4H,5H,6H,7H-[1,2,3]triazolo[4,5-c]pyridin-5-yl}ethan-1-one], the IC50 on human ENPP2 (setting [5]) is 2.57 nM; at human ATX, 2.27 nM. The half-life at 1 µM was found to be 4.2 min in data set [1] and 3.9 ± 0.03 min in data set [2].
As for `NC1CCC(c2nn(CC(=O)N3CCc4[nH]nnc4C3)cc2-c2cnc(NC3Cc4ccccc4C3)nc2)CC1` (stereo not drawn) [Compound 99, 2-[3-(4-aminocyclohexyl)-4-{2-[(2,3-dihydro-1H-inden-2-yl)amino]pyrimidin-5-yl}-1H-pyrazol-1-yl]-1-{1H,4H,5H,6H,7H-[1,2,3]triazolo[4,5-c]pyridin-5-yl}ethan-1-one], the IC50 was determined as 2.8 nM at human ENPP2 (setting [5]) and 5.59 nM on human ATX.
Turning to `O=C(Cn1cc(-c2cnc(NC3Cc4ccccc4C3)nc2)c(NC2CCC2)n1)N1CCc2[nH]nnc2C1` [Compound 100, 2-[3-(cyclobutylamino)-4-{2-[(2,3-dihydro-1H-inden-2-yl)amino]pyrimidin-5-yl}-1H-pyrazol-1-yl]-1-{1H,4H,5H,6H,7H-[1,2,3]triazolo[4,5-c]pyridin-5-yl}ethan-1-one], the IC50 worked out at 1.74 nM at human ENPP2 (setting [5]) and 3.6 nM on human ATX. For the same molecule, the half-life at 1 µM in data set [1] is 16.4 min; in data set [2], 10.3 ± 0.72 min.
The like results for `O=C(Cn1cc(-c2cnc(NC3Cc4ccccc4C3)nc2)c(C2CCNCC2)n1)N1CCc2[nH]nnc2C1` [Compound 98, 2-(4-{2-[(2,3-dihydro-1H-inden-2-yl)amino]pyrimidin-5-yl}-3-(piperidin-4-yl)-1H-pyrazol-1-yl)-1-{1H,4H,5H,6H,7H-[1,2,3]triazolo[4,5-c]pyridin-5-yl}ethan-1-one] were, in that order, 9.39 nM, less than 1.56 nM, greater than 60 min and greater than 60 min.
On to `O=C(Cc1cn(-c2ccc(Cl)cc2)c(-c2cnc(NC3Cc4ccccc4C3)nc2)n1)N1CCc2[nH]nnc2C1` [Compound 117, 2-[1-(4-chlorophenyl)-2-{2-[(2,3-dihydro-1H-inden-2-yl)amino]pyrimidin-5-yl}-1H-imidazol-4-yl]-1-{1H,4H,5H,6H,7H-[1,2,3]triazolo[4,5-c]pyridin-5-yl}ethan-1-one], for which the IC50 at human ENPP2 (setting [5]) was 1.84 nM; on human ATX, greater than 100 nM.
With `Cc1nc(-c2cnc(NC3Cc4ccccc4C3)nc2)cn1CC(=O)N1CCc2[nH]nnc2C1` [Compound 107, 2-(4-{2-[(2,3-dihydro-1H-inden-2-yl)amino]pyrimidin-5-yl}-2-methyl-1H-imidazol-1-yl)-1-{1H,4H,5H,6H,7H-[1,2,3]triazolo[4,5-c]pyridin-5-yl}ethan-1-one], the figures for the IC50 at human ENPP2 (setting [5]) and on human ATX were 1.56 nM and 4.87 nM, respectively.
On to `O=C(Cn1cc(-c2cnc(NC3Cc4ccccc4C3)nc2)c(-c2ccncc2)n1)N1CCc2[nH]nnc2C1` [Compound 96, 2-(4-{2-[(2,3-dihydro-1H-inden-2-yl)amino]pyrimidin-5-yl}-3-(pyridin-4-yl)-1H-pyrazol-1-yl)-1-{1H,4H,5H,6H,7H-[1,2,3]triazolo[4,5-c]pyridin-5-yl}ethan-1-one], for which the values for the IC50 (at human ENPP2 (setting [5]); at human ATX; in data set [3]) were 2.02 nM, less than 1.56 nM and 3.65 nM, respectively. The half-life at 1 µM in data set [1] was found to be 22.2 min; in data set [2] it was 30 ± 1.57 min.
Regarding `O=C(O)c1ccc(-c2nn(CC(=O)N3CCc4[nH]nnc4C3)cc2-c2cnc(NC3Cc4ccccc4C3)nc2)cc1` [Compound 119, 4-(4-{2-[(2,3-dihydro-1H-inden-2-yl)amino]pyrimidin-5-yl}-1-(2-oxo-2-{1H,4H,5H,6H,7H-[1,2,3]triazolo[4,5-c]pyridin-5-yl}ethyl)-1H-pyrazol-3-yl)benzoic Acid], the values for the IC50 on human ENPP2 (setting [5]) and on human ATX were less than 1.56 nM and 9.19 nM, respectively.
In the case of `NNC(=O)C1=CCN(C(=O)Cc2nnc(-c3cnc(NC4Cc5ccccc5C4)nc3)o2)CC1` [Compound 120, 1-[2-(5-{2-[(2,3-dihydro-1H-inden-2-yl)amino]pyrimidin-5-yl}-1,3,4-oxadiazol-2-yl)acetyl]-1,2,3,6-tetrahydropyridine-4-carbohydrazide Hydrochloride], the IC50 against human ENPP2 turned out to be 25.9 nM; on human ATX, 380 nM.
With `CC(C)(CN1CCc2[nH]nnc2C1)C(=O)N1CCN(c2cnc(NC3Cc4ccccc4C3)nc2)CC1` [Compound 19, 1-(4-{2-[(2,3-dihydro-1H-inden-2-yl)amino]pyrimidin-5-yl}piperazin-1-yl)-2,2-dimethyl-3-{1H,4H,5H,6H,7H-[1,2,3]triazolo[4,5-c]pyridin-5-yl}propan-1-one], the values for the IC50 (at human ENPP2 (setting [6]); in data set [4]) were 3.1 nM and 25 nM, respectively.
Regarding `O=C(CN1CCN(c2cnc(NC3Cc4ccccc4C3)nc2)CC1)Nc1ccc2[nH]c(=O)oc2c1` [Compound 27, 2-(4-{2-[(2,3-dihydro-1H-inden-2-yl)amino]pyrimidin-5-yl}piperazin-1-yl)-N-(2-oxo-2,3-dihydro-1,3-benzoxazol-6-yl)acetamide], the results for the IC50 (at human ENPP2 (setting [6]); in data set [4]) were 2.4 nM and 10 nM, respectively.
On to `O=C(CO)N1CCC(c2nn(CC(=O)N3CCc4[nH]nnc4C3)cc2-c2cnc(NC3Cc4ccccc4C3)nc2)CC1` [Compound 118, 1-[4-(4-{2-[(2,3-dihydro-1H-inden-2-yl)amino]pyrimidin-5-yl}-1-(2-oxo-2-{1H,4H,5H,6H,7H-[1,2,3]triazolo[4,5-c]pyridin-5-yl}ethyl)-1H-pyrazol-3-yl)piperidin-1-yl]-2-hydroxyethan-1-one], for which the 50% inhibitory concentration (IC50) on human ENPP2 (setting [5]) is less than 1.56 nM; on human ATX, 5.3 nM.

Values taken from patent publication US10961242B2, “Compounds as autotaxin inhibitors and pharmaceutical compositions comprising the same” (LegoChem Biosciences, Inc., priority 2018, dated 2021).
